Experimental data taken from patent publication US9795810B2, “Propylene glycol/glycerin-based deodorant” (COLGATE-PALMOLIVE COMPANY, priority 2007, dated 2017).

Test system: Corynebacterium minutissimum
Assay: Zone of Inhibition test on inoculated agar plates
Assay type: cell-based
Conditions: for Zone of Inhibition (mm): from the edge of 2 cm disk, 0.2 g stick or approx. 0.6 g neat, 37° C., 48 hrs
Protocol: A commercially available regular Mennen Speed Stick (MSS) deodorant stick, an Ultimate Mennen Speed Stick deodorant stick (containing triclosan as a control) and the PG-free deodorant stick containing glycerin were tested with a Zone Of Inhibition test using 2 cm Webril® (Fiberweb, Gray Court, S.C.) cotton disks on inoculated plates. Also, as controls: water, neat (undiluted) PG and neat glycerin were tested.
Zone of Inhibition Test method: To the disks was added 0.2 g of the stick products or approximately 0.6 g (enough to just saturate the disk) of the neat controls. The disks were then inverted and placed face down on an inoculated agar plate. The agar plates were streaked beforehand (30 minutes) such that a bacterial lawn of Corynebacterium minutissimum at a concentration of 10^6/ml was created covering the entire plate surface. The plates were then incubated at 37° C. for 48 hrs.
Zones of inhibition were measured in millimeters (mm) from the edge of the disk. A greater zone equals increased bacterial growth inhibition.

| SMILES | Zone of inhibition result in words | Zone of Inhibition (mm) |
| --- | --- | --- |
| OCC(O)CO [Glycerin neat, glycerin] | small zone | 1 mm |
| CC(O)CO (stereo not drawn) [PG neat, propylene glycol] |  | 2.5 mm |
